Results on 15 compounds are retold here after patent US20260022100A1, “NAV1.8 INHIBITOR” (Wuhan Humanwell Innovative Drug Research and Development …, priority 2022, published 2026).

In one data set the target is Nav1.8 ion channel (Homo sapiens (Human), UniProt Q9Y5Y9). The experiment in a line: Inhibitory activity on Nav1.8 ion channel, whole-cell patch-clamp on HEK293/Nav1.8. It is filed as cell-based. To be noted: HEK293/Nav1.8, whole-cell patch clamp, holding -80 mV, 1 μM TTX. As for the experimental part:
Reagents were purchased from Sigma (St. Louis, MO) except NaOH and KOH for acid-base titration. The final concentrations of the test compounds were all prepared on the day of the test and then dissolved in an extracellular fluid. The extracellular fluid (mM) was NaCl, 137; KCl, 4; CaCl2), 1.8; MgCl2, 1; HEPES, 10; glucose 10; and pH 7.4 (NaOH titration). All test and control compound solutions contained 1 μM TTX. The intracellular fluid (mM) was: aspartic acid, 140; magnesium chloride, 2; ethylene glycol tetraacetic acid (EGTA), 11; and N-2-hydroxyethylpiperazine-N′-2-ethanesulfonic acid (HEPES), 10. The pH was adjusted to 7.4 with cesium hydroxide.
The test compounds were dissolved in dimethylsulfoxide (DMSO) at a concentration of 9 mM. On the day of the test, the compounds were then dissolved in the extracellular fluid and prepared into the required concentration.
The cells were transferred to a perfusion chamber and perfusion was carried out using the extracellular fluid. The intracellular fluid was thawed on the day of the experiment. The electrodes were produced by pulling with PC-10 (Narishige, Japan). Whole-cell patch-clamp recording was carried out. Noise was filtered at one fifth of the sampling frequency. The intracellular fluid with ¼ length of the electrode tube was added into the electrode, and the electrode was installed on a probe. The required Protocol was set, the interface was adjusted to Membrane test, and Stage was adjusted to Bath. A positive pressure was applied in the electrode. The tip of the electrode was contacted with the cell. The three-way valve of the air extractor was adjusted to a three-way state. A negative pressure was then applied to the electrode, so that the electrode and the cell formed a high-resistance seal. Stage was adjusted to Patch, and leak was controlled within −200 pA. A negative pressure was successively applied, so that cell membranes were broken, and a current path was formed. Perfusion was carried out by opening the suction filtration device and the extracellular fluid valve. The cell current was observed, and administration was started when the cell current was stable (at least 3 sweep current curves were overlapped). Administration was performed from low concentration to high concentration. The administration time of each concentration was not less than 2 min, and when the current was stable, the concentration was changed for administration.
For administration of the test samples, perfusion was carried out using a perfusion system utilizing the self gravity. […] During the period, the CV % of all peak current amplitudes should be less than 10% to exclude up and down fluctuations of the initial current. The average of the peak current amplitudes recorded for the last 10 times during the initial recording served as the current peak of the negative control. After the initial current was stable, the test samples were dosed starting from a low concentration until the 10 recorded peak currents were again stable or the peak currents were “constant” after and before administration after continuous administration for 5 min. We defined the following two cases as “stable” or “constant”: 1) if the absolute average of the peak current for 10 consecutive scans exceeded 200 pA and the CV value was less than 10%, 2) or the average of the peak current for 10 consecutive scans was between 200 pA and 50 pA and the CV value was less than 30%. The next detection of higher concentration was then given.
The average of the peak current of the last 10 scans of each concentration was taken as the peak current for that concentration for data analysis. If the stable state was not reached within 5 min, the peak current average of the last 10 scans at that time was used for data analysis as the peak current for that concentration. At the same time, the cells were discarded and no longer used for detection of higher concentration. At least two cells were tested per concentration of the compounds. […]
Background: The patch-clamp technique gives a direct electrical read-out from membranes.

Data set [1] can be described thus: Pharmacokinetic assay in mice. The class given is in vivo. To be noted: male, ICR, mouse, plasma, oral intragastric administration, 10 mg/kg. The protocol:
Pharmacokinetic assay in mice was performed, wherein the mice used were 3 male ICR mice and fasted overnight. The mice were orally intragastrically dosed with the medicament (10 mg/kg). Blood was collected before administration and at 15 min, 30 min and 1 h, 2 h, 4 h, 6 h, 8 h, and 24 h after administration. Blood samples were centrifuged at 8000 rpm for 6 min at 4° C., and plasma was collected and stored at −20° C. The plasma at each time point was taken, and 3-5 times its amount of an acetonitrile solution containing an internal standard was added for mixing. The mixture was vortexed for 1 min and then centrifuged at 13000 rpm at 4° C. for 10 min. The supernatant was taken, and 3 times its amount of water was added for mixing. A proper amount of the resulting mixture was taken for LC-MS/MS analysis. The major pharmacokinetic parameters were analyzed using a non-compartmental model in the WinNonlin 7.0 software.

Data set [2] deals with spinal nerve-ligated rats. As to the kind of experiment: Spinal nerve ligation neuropathic pain model in rats (Von-Frey mechanical pain threshold). The note with it: SNL rats. It is filed as in vivo, male SD rat. An excerpt:
A male SD rat weighing 180-220 g was placed on an operating table in a prone position after anesthesia. An incision was made along the spinal column near the hip bone of the animal, and the fascia and muscle were separated. The L5 transverse process was carefully snapped off with a tweezer. The L5 nerve was separated with a glass needle, and the L5 nerve was ligated with 5-0 ligature. The muscle and the skin were sutured and disinfected with iodophor. After 14 days of modeling, the animals were divided into different groups, 10 animals each group. Different compounds were separately orally administered intragastrically. Mechanical pain thresholds of the animals were detected with Von-Frey fiber filaments at different time points after administration. The specific administration dose and detection time are detailed in Table 3 below.
The mechanical pain threshold detection method: The pelma of the hind limb to be tested of the test animal was continuously stimulated using the Von-Frey fiber filament to bend the fiber filament, and the foot shrinking reaction of the animal was observed. The tested animals were stimulated one by one according to the sequence of the gram number of the fiber filaments from small to large, and each gram number of the fiber filament was continuously used for stimulation for 5 times. If less than 3 positive reactions were present, the procedure described above was repeated using a larger grade of fiber filament, and if 3 or more positive reactions were present for the first time in the test, the fiber filament was the pain threshold for that animal (3 tests per animal for the average). Fiber filament gram number: 0.6, 1.0, 1.4, 2.0, 4.0, 6.0, 8.0, 10.0, and 15.0; the cut value was 15.0 g.

As a reminder, the IC50 is the concentration needed to halve the response being measured. A high value points to weaker potency in that assay. For the compound `O=C(Nc1ccc[n+]([O-])c1)c1c(Oc2ccc(F)c3c2OC(F)(F)O3)cc(Cl)c(Cl)c1F` [Compound I-32, 3-(3,4-Dichloro-2-fluoro-6-((2,2,7-trifluorobenzo[d][1,3]dioxol-4-yl)oxy)benzamido)pyridine-1-oxide], the IC50 at Nav1.8 ion channel was 0.71 nM.

For orientation: AUC(0-t) means the area under the concentration-time curve up to a stated or last time point. By Cmax is commonly meant the peak of the concentration-time curve. For orientation: Tmax means the time from dosing to the highest level. For orientation: half-life means how long it takes for the measured level to halve. A lower half-life goes with rapid decline. Consider `O=C(Nc1ccc[n+]([O-])c1)c1cc(Cl)c(C(F)(F)F)cc1Oc1ccc(SC(F)(F)F)cc1` [Compound I-15], for which, in data set [1], the AUC(0-t) came out at 539000 ng·h/mL, the Cmax is 30000 ng/mL, the Tmax came out at 8 h and the half-life is 34 h.

In turn, `[2H]C([2H])([2H])Oc1cc(OC(F)(F)F)ccc1Oc1cc(Cl)c(Cl)cc1C(=O)Nc1cnc[n+]([O-])c1` [Compound I-24, 5-(4,5-dichloro-2-(2-(methoxy-d3)-4-(trifluoromethoxy)phenoxy)benzamido)pyrimidine 1-oxide] registered a 50% inhibitory concentration (IC50) on Nav1.8 ion channel of 2.2 nM. Besides, in data set [1], the AUC(0-t) is 4560 ng·h/mL, the peak concentration (Cmax) was 1870 ng/mL, the Tmax stood at 0.5 h and the half-life is 1.78 h.

For the compound `[2H]C([2H])([2H])Oc1cc(F)c(F)cc1Oc1cc(C(F)(F)F)c(Cl)c(F)c1C(=O)Nc1cnc[n+]([O-])c1` [Compound I-28, 5-(3-chloro-6-(4,5-difluoro-2-(methoxy-d3)phenoxy)-2-fluoro-4-(trifluoromethyl)benzamido)pyrimidine 1-oxide], on Nav1.8 ion channel, it took 1.3 nM to reach half-maximal inhibition (IC50).

For the compound `O=C(Nc1ccc[n+]([O-])c1)c1cc(Cl)c(C(F)(F)F)cc1Oc1ccc(F)c2c1OC(F)(F)O2` [Compound I-23, 3-(5-chloro-2-((2,2,7-trifluorobenzo[d][1,3]dioxol-4-yl)oxy)-4-(trifluoromethyl)benzamido)pyridine 1-oxide], inhibition against Nav1.8 ion channel was half-maximal at 2.9 nM (IC50). For the same compound, in data set [1], the AUC(0-t) is 37900 ng·h/mL, the peak level (Cmax) was 3450 ng/mL, the Tmax was 1 h and the half-life is 2.53 h.

For the compound `O=C(Nc1ccc[n+]([O-])c1)c1cc(Cl)c(Cl)cc1Oc1ccc(F)c2c1OC(F)(F)O2` [Compound I-22, 3-(4,5-Dichloro-2-((2,2,7-trifluorobenzo[d][1,3]dioxol-4-yl)oxy)benzamido)-pyridine 1-oxide], the IC50 at Nav1.8 ion channel was determined as 8.15 nM. In data set [1], the AUC(0-t) turned out to be 12700 ng·h/mL, the Cmax worked out at 3090 ng/mL, the Tmax turned out to be 1 h and the half-life is 2.88 h.

Regarding `Cc1cc(F)ccc1Oc1cc(C(F)(F)F)c(Cl)cc1C(=O)Nc1cnc[n+]([O-])c1` [Compound I-31, 5-(5-chloro-2-(4-fluoro-2-methylphenoxy)-4-(trifluoromethyl)benzamido)pyrimidine 1-oxide], the IC50 at Nav1.8 ion channel came out at 9.75 nM. This counts as single-digit nanomolar.

`COc1cc(OC(F)(F)F)ccc1Oc1cc(Cl)c(Cl)cc1C(=O)Nc1cnc[n+]([O-])c1` [Compound I-18, 5-(4,5-dichloro-2-(2-methoxy-4-(trifluoromethoxy)phenoxy)benzamido)pyrimidine 1-oxide]: half-maximal inhibition at Nav1.8 ion channel (IC50) required 2.4 nM. Besides, in data set [1], the AUC(0-t) stood at 3340 ng·h/mL, the Cmax was found to be 1390 ng/mL, the Tmax worked out at 0.5 h and the half-life was 1.22 h.

As for `[2H]C([2H])([2H])Oc1cc(F)ccc1Oc1cc(Cl)c(Cl)cc1C(=O)Nc1cnc[n+]([O-])c1` [Compound I-21, 5-(4,5-dichloro-2-(4-fluoro-2-(trideuteromethoxy)phenoxy)benzamido)pyrimidine 1-oxide], in data set [1], the AUC(0-t) turned out to be 2490 ng·h/mL, the Cmax turned out to be 1400 ng/mL, the Tmax turned out to be 0.5 h and the half-life was 1.32 h.

Compound `O=C(Nc1cnc[n+]([O-])c1)c1cc(Cl)c(C(F)(F)F)cc1Oc1ccc(OC(F)(F)F)cc1` [Compound I-2, 5-(5-Chloro-2-(4-(trifluoromethoxy)phenoxy)-4-(trifluoromethyl)benzamido)pyrimidine-1-oxide] came in with an IC50 on Nav1.8 ion channel of 11 nM.

The compound `Cc1cc(F)ccc1Oc1cc(C(F)(F)F)c(Cl)c(F)c1C(=O)Nc1cnc[n+]([O-])c1` [Compound I-34, 5-(3-chloro-2-fluoro-6-(4-fluoro-2-methylphenoxy)-4-(trifluoromethyl)benzamido)pyrimidine 1-oxide] returned an IC50 against Nav1.8 ion channel of 1.4 nM. Compared with the last compound, the IC50 is about 7.9-fold lower.

At Nav1.8 ion channel, `O=C(Nc1ccc[n+]([O-])c1)c1c(Oc2ccc(F)c3c2OC(F)(F)O3)cc(C(F)(F)F)c(Cl)c1F` [Compound I-11, 3-(3-Chloro-2-fluoro-6-((2,2,7-trifluorobenzo[d][1,3]dioxol-4-yl)oxy)-4-trifluoromethyl-benzamido)pyridine 1-oxide] yielded an IC50 of 0.64 nM. In data set [1], the AUC(0-t) was 9070 ng·h/mL, the peak level (Cmax) was 2240 ng/mL, the Tmax stood at 1 h and the half-life is 2.18 h. Also, the “Mechanical pain threshold (Mean ± SD), base value before modeling” value in data set [2] (100 mpk group, baseline before modeling) turned out to be 13.0 ± 2.8 g. Further, the “Mechanical pain threshold (Mean ± SD), 3 h after administration” value in data set [2] (100 mpk oral intragastric, 3 h) turned out to be 13.6 ± 2.0 g. Moreover, the “Mechanical pain threshold (Mean ± SD), 6 h after administration” value in data set [2] (100 mpk oral intragastric, 6 h) amounted to 12.1 ± 2.5 g.

As to `O=C(Nc1cnc[n+]([O-])c1)c1c(Oc2ccc(OC(F)F)cc2)cc(C(F)(F)F)c(Cl)c1F` [Compound I-25, 5-(3-Chloro-6-(4-(difluoromethoxy)phenoxy)-2-fluoro-4-(trifluoromethyl)benzamido)pyrimidine 1-oxide], at Nav1.8 ion channel, the IC50 is 2.9 nM.

Regarding `O=C(Nc1cnc[n+]([O-])c1)c1c(Oc2ccc(OC(F)(F)F)cc2)ccc(C(F)(F)F)c1F` [Compound I-20, 5-(2-fluoro-6-(4-(trifluoromethoxy)phenoxy)-3-(trifluoromethyl)benzamido)pyrimidine 1-oxide], in data set [1], the AUC(0-t) worked out at 96200 ng·h/mL, the peak level (Cmax) was 8010 ng/mL, the Tmax worked out at 4 h and the half-life is 2.87 h.

The compound `O=C(Nc1cnc[n+]([O-])c1)c1c(Oc2ccc(OC(F)(F)F)cc2)cc(Cl)c(Cl)c1F` [Compound I-19, 5-(3,4-Dichloro-2-fluoro-6-(4-(trifluoromethoxy)phenoxy)benzamido)pyrimidine 1-oxide] yielded an IC50 at Nav1.8 ion channel of 0.98 nM. Further, in data set [1], the AUC(0-t) turned out to be 19200 ng·h/mL, the concentration peaked (Cmax) at 8880 ng/mL, the Tmax was 0.5 h and the half-life is 2 h.
